# Read-outs that look alike come from different tables or passages of the source.
# How the values were obtained:
# Format in all cases: cell-based
# [1] = test system: Helicobacter pylori K 1585; experiment: Antibacterial activity against Helicobacter pylori in vitro (MIC, agar method); details: K1585, H. pylori K 1585, Muller-Hinton agar, 5% sheep blood, incubation 4 days, read-out: Minimum inhibitory concentration (MIC)
# Experimental: (§1) The minimum inhibitory concentration (MIC) of the substances investigated against gram-positive and gram-negative strains was determined using standard agar methods. The compounds were dissolved in a small amount of dimethyl sulphoxide, diluted with water and incorporated into liquified DST agar at 50° C. The thus-produced agar plates were used immediately thereafter in the test. The test concentrations lay between 128 and 0.06 μg/ml. The bacterial inoculation solutions were prepared from pre-cultures grown overnight, diluted and applied to the agar surface using an inoculation device (Denley A400). The plates were incubated at 35° C. for 20 hours. The MIC was determined as the lowest concentration of substance which prevented a visible growth. A scarcely visible turbidity and the growth of less than 5 colonies were ignored. The determinations of the antibacterial activities (Tab. 1) were carried out not only for the free bases, but also for the hydrochloride salt of each compound. The same values were obtained within experimental error.
# (§2) The antibacterial activities against Helicobacter pylori were carried out analogously to the method described above with the following variations: The compounds were incorporated into Muller-Hinton agar containing 5% sheep blood additive. The test concentrations lay between 10 and 0.1 μg/ml. […]
# [2] = test system: Helicobacter pylori PH 81; experiment: as above; details: PH81, H. pylori PH 81, Muller-Hinton agar, 5% sheep blood, incubation 7 days, read-out: Minimum inhibitory concentration (MIC)
# Experimental: as §1, §2
# E. cloacae P 99 = experiment: Antibacterial activity in vitro (MIC, standard agar method); details: Enterobacter cloacae, P99, 20 h, read-out: Minimum inhibitory concentration (MIC)
# Experimental: as §1
# E. coli 1346 = experiment: as above; details: Escherichia coli, DST agar, 35° C., 20 hours, read-out: Minimum inhibitory concentration (MIC)
# Experimental: as §1
# E. coli 159 R = experiment: as above; details: Escherichia coli, 159R, 20 h, read-out: Minimum inhibitory concentration (MIC)
# Experimental: as §1
# E. coli 25922 = experiment: as above; details: read-out: Minimum inhibitory concentration (MIC)
# Experimental: as §1
# E. coli AS-19 = experiment: as above; details: Escherichia coli, AS19, DST agar, 35° C., 20 hours, read-out: Minimum inhibitory concentration (MIC)
# Experimental: as §1
# E. coli B = experiment: as above; details: Escherichia coli, DST agar, 35° C., 20 hours, read-out: Minimum inhibitory concentration (MIC)
# Experimental: as §1
# E. coli DC2 = experiment: as above; details: Escherichia coli; E. coli DC2; DST agar, 35° C., 20 hours; read-out: Minimum inhibitory concentration (MIC)
# Experimental: as §1
# E. coli H560 = experiment: as above; details: Escherichia coli, H560, 20 h, read-out: Minimum inhibitory concentration (MIC)
# Experimental: as §1
# [3] = test system: E. coli K12 KEA-12 (GyrA); experiment: as above; details: Escherichia coli, 20 h, read-out: Minimum inhibitory concentration (MIC)
# Experimental: as §1
# E. faecalis 6 = experiment: as above; details: Enterococcus faecalis; E. faecalis 6; DST agar, 35° C., 20 hours; read-out: Minimum inhibitory concentration (MIC)
# Experimental: as §1
# K. oxytoca 1082E = experiment: as above; details: Klebsiella oxytoca, DST agar, 35° C., 20 hours, read-out: Minimum inhibitory concentration (MIC)
# Experimental: as §1
# P. aeroginosa BA = experiment: as above; details: DST agar, 35° C., 20 hours, read-out: Minimum inhibitory concentration (MIC)
# Experimental: as §1
# P. aeroguinosa 3351 = experiment: as above; details: 20 h, read-out: Minimum inhibitory concentration (MIC)
# Experimental: as §1
# P. aeruginosa 799/61 = experiment: as above; details: Pseudomonas aeruginosa, 799/61, 20 h, read-out: Minimum inhibitory concentration (MIC)
# Experimental: as §1
# S. aureus 101 = experiment: as above; details: Staphylococcus aureus, DST agar, 35° C., 20 hours, read-out: Minimum inhibitory concentration (MIC)
# Experimental: as §1
# S. aureus 853 = experiment: as above; details: Staphylococcus aureus, DST agar, 35° C., 20 hours, read-out: Minimum inhibitory concentration (MIC)
# Experimental: as §1
# Staph. aureus 25923 = experiment: as above; details: Staphylococcus aureus, DST agar, 35° C., 20 hours, read-out: Minimum inhibitory concentration (MIC)
# Experimental: as §1
# Staph. aureus 887 = experiment: as above; details: Staphylococcus aureus, DST agar, 35° C., 20 hours, read-out: Minimum inhibitory concentration (MIC)
# Experimental: as §1
# Staph. haemolyticus 75 = experiment: as above; details: Staphylococcus haemolyticus, DST agar, 35° C., 20 hours, read-out: Minimum inhibitory concentration (MIC)
# Experimental: as §1
# B. subtilis ATCC 585369 = experiment: as above; details: Bacillus subtilis, ATCC585369, DST agar, 35° C., 20 hours, read-out: Minimum inhibitory concentration (MIC)
# Experimental: as §1
# E. coli 1527 E = experiment: as above; details: Escherichia coli, 1527E, 20 h, read-out: Minimum inhibitory concentration (MIC)
# Experimental: as §1
# S. marcescens = experiment: as above; details: Serratia marcescens, 20 h, read-out: Minimum inhibitory concentration (MIC)
# Experimental: as §1
structure (smiles),measurement,setting,value
Cc1cc(-c2nc3ccc(-c4ccc5nc(-c6ccc(O)c(C)c6)[nH]c5c4)cc3[nH]2)ccc1O [Example 2],MIC,[1],1 µg/mL
same,MIC,[2],< 0.1 µg/mL
same,MIC,E. cloacae P 99,> 128 µg/mL
same,MIC,E. coli 1346,2 µg/mL
same,MIC,E. coli 159 R,> 128 µg/mL
same,MIC,"E. coli 25922; Escherichia coli, 25922, 20 h",128 µg/mL
same,MIC,E. coli AS-19,4 µg/mL
same,MIC,E. coli B,0.5 µg/mL
same,MIC,E. coli DC2,4 µg/mL
same,MIC,E. coli H560,> 128 µg/mL
same,MIC,[3],> 128 µg/mL
same,MIC,E. faecalis 6,≤ 0.25 µg/mL
same,MIC,K. oxytoca 1082E,> 128 µg/mL
same,MIC,P. aeroginosa BA,> 128 µg/mL
same,MIC,P. aeroguinosa 3351,> 128 µg/mL
same,MIC,P. aeruginosa 799/61,> 128 µg/mL
same,MIC,S. aureus 101,0.5 µg/mL
same,MIC,S. aureus 853,≤ 0.25 µg/mL
same,MIC,Staph. aureus 25923,≤ 0.25 µg/mL
same,MIC,Staph. aureus 887,≤ 0.25 µg/mL
same,MIC,Staph. haemolyticus 75,≤ 0.25 µg/mL
"COc1cc(-c2nc3ccc(-c4ccc5nc(-c6ccc(O)c(OC)c6)[nH]c5c4)cc3[nH]2)ccc1O [Example 3, 4-[2'-(4-Hydroxy-3-methoxy-phenyl)-6,6'-dibenzimidazol-2-yl]-2-methoxy-phenyl]",MIC,B. subtilis ATCC 585369,32 µg/mL
same,MIC,E. cloacae P 99,> 128 µg/mL
same,MIC,E. coli 1346,64 µg/mL
same,MIC,E. coli 1527 E,> 128 µg/mL
same,MIC,"E. coli 25922; Escherichia coli, 25922, 20 h",> 128 µg/mL
same,MIC,E. coli AS-19,> 128 µg/mL
same,MIC,E. coli B,16 µg/mL
same,MIC,E. coli DC2,8 µg/mL
same,MIC,E. coli H560,> 128 µg/mL
same,MIC,[3],> 128 µg/mL
same,MIC,E. faecalis 6,4 µg/mL
same,MIC,K. oxytoca 1082E,> 128 µg/mL
same,MIC,P. aeroginosa BA,> 128 µg/mL
same,MIC,P. aeroguinosa 3351,> 128 µg/mL
same,MIC,P. aeruginosa 799/61,> 128 µg/mL
same,MIC,S. marcescens,> 128 µg/mL
same,MIC,Staph. aureus 25923,4 µg/mL
same,MIC,Staph. aureus 887,8 µg/mL
same,MIC,Staph. haemolyticus 75,4 µg/mL
"COc1ccc(-c2nc3ccc(-c4ccc5nc(-c6ccc(OC)c(O)c6)[nH]c5c4)cc3[nH]2)cc1O [Example 4, 5-[2'-(3-Hydroxy-4-methoxy-phenyl)-6,6'-dibenzimidazol-2-yl]-2-methoxy-phenol]",MIC,B. subtilis ATCC 585369,≤ 0.25 µg/mL
same,MIC,E. cloacae P 99,> 128 µg/mL
same,MIC,E. coli 1346,≤ 0.25 µg/mL
same,MIC,E. coli 1527 E,> 128 µg/mL
same,MIC,"E. coli 25922; Escherichia coli, 25922, 20 h",> 128 µg/mL
same,MIC,E. coli AS-19,1 µg/mL
same,MIC,E. coli B,≤ 0.25 µg/mL
same,MIC,E. coli DC2,2 µg/mL
same,MIC,E. coli H560,> 128 µg/mL
same,MIC,[3],> 128 µg/mL
same,MIC,E. faecalis 6,32 µg/mL
same,MIC,K. oxytoca 1082E,> 128 µg/mL
same,MIC,P. aeroginosa BA,> 128 µg/mL
same,MIC,P. aeroguinosa 3351,> 128 µg/mL
same,MIC,P. aeruginosa 799/61,> 128 µg/mL
same,MIC,S. aureus 101,≤ 0.25 µg/mL
same,MIC,S. marcescens,> 128 µg/mL
same,MIC,Staph. aureus 25923,0.5 µg/mL
same,MIC,Staph. aureus 887,0.5 µg/mL
same,MIC,Staph. haemolyticus 75,≤ 0.25 µg/mL
"Oc1cccc(-c2nc3ccc(-c4ccc5nc(-c6cccc(O)c6)[nH]c5c4)cc3[nH]2)c1 [Example 6, 3-[2'-(3-Hydroxy-phenyl)-6,6'-dibenzimidazol-2-yl]-phenol]",MIC,B. subtilis ATCC 585369,2 µg/mL
same,MIC,E. cloacae P 99,> 128 µg/mL
same,MIC,E. coli 1346,2 µg/mL
same,MIC,E. coli 1527 E,> 128 µg/mL
same,MIC,"E. coli 25922; Escherichia coli, E. coli 25922, DST agar, 35° C., 20 hours",> 128 µg/mL
same,MIC,E. coli AS-19,1 µg/mL
same,MIC,E. coli B,0.5 µg/mL
same,MIC,E. coli DC2,1 µg/mL
same,MIC,E. coli H560,> 128 µg/mL
same,MIC,[3],> 128 µg/mL
same,MIC,E. faecalis 6,2 µg/mL
same,MIC,K. oxytoca 1082E,> 128 µg/mL
same,MIC,P. aeroginosa BA,> 128 µg/mL
same,MIC,P. aeroguinosa 3351,> 128 µg/mL
same,MIC,P. aeruginosa 799/61,> 128 µg/mL
same,MIC,S. aureus 101,0.12 µg/mL
same,MIC,S. marcescens,> 128 µg/mL
same,MIC,Staph. aureus 25923,2 µg/mL
same,MIC,Staph. aureus 887,2 µg/mL
same,MIC,Staph. haemolyticus 75,1 µg/mL

# Reference: US5824698A, “Antibacterial dibenzimidazole derivatives” (priority 1994, dated 1998)
